The record followed here is patent publication US20200361895A1, “NOVEL SULFONAMIDE CARBOXAMIDE COMPOUNDS” (Inflazome Limited, priority 2017, published 2020).

Structures can show the parent of a compound that is named as a salt. Bounds are passed on as bounds.

Chain of NLRP3 (Q96P20 whole entry): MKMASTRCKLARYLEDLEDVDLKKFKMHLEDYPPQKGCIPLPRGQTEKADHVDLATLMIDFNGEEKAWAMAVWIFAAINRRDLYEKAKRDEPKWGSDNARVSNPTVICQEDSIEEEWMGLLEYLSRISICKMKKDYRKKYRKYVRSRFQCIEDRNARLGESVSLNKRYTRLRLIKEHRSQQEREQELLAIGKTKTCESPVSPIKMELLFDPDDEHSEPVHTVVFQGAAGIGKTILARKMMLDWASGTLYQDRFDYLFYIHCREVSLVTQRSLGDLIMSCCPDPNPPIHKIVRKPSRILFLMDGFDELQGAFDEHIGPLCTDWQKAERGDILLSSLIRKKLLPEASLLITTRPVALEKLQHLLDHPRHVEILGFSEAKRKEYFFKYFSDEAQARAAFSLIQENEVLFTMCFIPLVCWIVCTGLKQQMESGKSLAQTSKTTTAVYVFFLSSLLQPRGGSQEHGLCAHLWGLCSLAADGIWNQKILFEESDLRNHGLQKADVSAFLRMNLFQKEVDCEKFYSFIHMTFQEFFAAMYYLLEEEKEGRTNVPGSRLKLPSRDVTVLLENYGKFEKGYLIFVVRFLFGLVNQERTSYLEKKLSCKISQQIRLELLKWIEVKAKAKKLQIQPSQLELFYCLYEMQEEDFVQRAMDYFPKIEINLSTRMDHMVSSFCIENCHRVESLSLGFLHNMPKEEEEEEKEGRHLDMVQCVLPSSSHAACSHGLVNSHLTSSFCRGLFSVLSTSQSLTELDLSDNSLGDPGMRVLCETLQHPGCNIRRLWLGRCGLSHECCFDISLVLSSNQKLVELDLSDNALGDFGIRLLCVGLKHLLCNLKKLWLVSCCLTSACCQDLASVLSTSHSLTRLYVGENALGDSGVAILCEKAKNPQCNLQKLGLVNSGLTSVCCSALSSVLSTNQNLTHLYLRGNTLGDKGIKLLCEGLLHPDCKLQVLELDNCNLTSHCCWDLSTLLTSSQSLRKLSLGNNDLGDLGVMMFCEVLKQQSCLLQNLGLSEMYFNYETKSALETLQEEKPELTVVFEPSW

The experiment concerns the target NLRP3 (Homo sapiens, UniProt Q96P20). As to the kind of experiment: THP-1 cells pyroptosis assay (LPS + nigericin, resazurin readout; THP IC50). In kind it is cell-based. The arrangement: Seed THP-1 cells (25,000 cells/well) containing 1.0 μg/ml LPS in 40 μl of RPMI medium; host or cells: THP-1 cells. The protocol:
THP-1 cells (ATCC #TIB-202) were grown in RPMI containing L-glutamine (Gibco #11835) supplemented with 1 mM sodium pyruvate (Sigma #S8636) and penicillin (100 units/ml)/streptomycin (0.1 mg/ml) (Sigma #P4333) in 10% Fetal Bovine Serum (FBS) (Sigma #F0804). The cells were routinely passaged and grown to confluency (˜10^6 cells/ml). On the day of the experiment, THP-1 cells were harvested and resuspended into RPMI medium (without FBS). The cells were then counted and viability (>90%) checked by Trypan blue (Sigma #T8154). Appropriate dilutions were made to give a concentration of 625,000 cells/ml. To this diluted cell solution was added LPS (Sigma #L4524) to give a 1 μg/ml Final Assay Concentration (FAC). 40 μl of the final preparation was aliquoted into each well of a 96-well plate. The plate thus prepared was used for compound screening.
The following method step-by-step assay was followed for compound screening. • 1. Seed THP-1 cells (25,000 cells/well) containing 1.0 μg/ml LPS in 40 μl of RPMI medium (without FBS) in 96-well, black walled, clear bottom cell culture plates coated with poly-D-lysine (VWR #734-0317) • 2. Add 5 μcompound (8 points half-log dilution, with 10 μM top dose) or vehicle (DMSO 0.1% FAC) to the appropriate wells • 3. Incubate for 3 hrs at 37° C. and 5% CO2 • 4. Add 5 μnigericin (Sigma #N7143) (FAC 5 μM) to all wells • 5. Incubate for 1 hr at 37° C. and 5% CO2 • 6. At the end of the incubation period, spin plates at 300×g for 3 mins and remove supernatant • 7. Then add 50 μl of resazurin (Sigma #R7017) (FAC 100 μM resazurin in RPMI medium without FBS) and incubate plates for a further 1-2 hrs at 37° C. and 5% CO2 • 8. Plates were read in an Envision reader at Ex 560 nm and Em 590 nm • 9. IC50 data is fitted to a non-linear regression equation (log inhibitor vs response-variable slope 4-parameters)
As for `CC(C)c1cc(F)cc(-c2cncc(F)c2)c1NC(=O)NS(=O)(=O)c1ccn(C(C)C)n1` [Example 21, N-((4-Fluoro-2-(5-fluoropyridin-3-yl)-6-isopropylphenyl)carbamoyl)-1-iso-propyl-1H-pyrazole-3-sulfonamide, partial ammonium salt], the IC50 (in general, the concentration that gives 50% inhibition) is no more than 5 µM.

Turning to `CC(C)c1cc(F)cc(-c2ccnc(C(F)(F)F)c2)c1NC(=O)NS(=O)(=O)c1ccn(C(C)C)n1` [Example 47, N-((4-Fluoro-2-isopropyl-6-(2-(trifluoromethyl)pyridin-4-yl)phenyl)carbamoyl)-1-isopropyl-1H-pyrazole-3-sulfonamide], the half-maximal inhibitory concentration (IC50) is no more than 1 µM. For `Cc1ccncc1-c1cc(F)cc(C(C)C)c1NC(=O)NS(=O)(=O)c1ccn(C(C)C)n1` [Example 20, N-((4-Fluoro-2-iso-propyl-6-(4-methylpyridin-3-yl)phenyl)carbamoyl)-1-iso-propyl-1H-pyrazole-3-sulfonamide, partial ammonium salt], the half-maximal inhibitory concentration (IC50) is no more than 5 µM. Take `CC(C)c1cc(F)cc(-c2cncs2)c1NC(=O)NS(=O)(=O)c1ccn(C(C)C)n1` [Example 6, N-((4-Fluoro-2-iso-propyl-6-(thiazol-5-yl)phenyl)carbamoyl)-1-iso-propyl-1H-pyrazole-3-sulfonamide]: the half-maximal inhibitory concentration (IC50) is no more than 5 µM.

Take `COc1ccc(-c2cc(F)cc(C(C)C)c2NC(=O)NS(=O)(=O)c2ccn(C(C)C)n2)cn1` [Example 19, N-((4-Fluoro-2-iso-propyl-6-(6-methoxypyridin-3-yl)phenyl)carbamoyl)-1-iso-propyl-1H-pyrazole-3-sulfonamide]: the IC50 was no more than 1 µM. As for `COCCCS(=O)(=O)NC(=O)Nc1c(-c2ccnc(OC)c2)ccc2c1CCC2` [Example 156, 3-Methoxy-N-((5-(2-methoxypyridin-4-yl)-2,3-dihydro-1H-inden-4-yl)carbamoyl)propane-1-sulfonamide], the IC50 was no more than 0.5 µM.

With `COc1cncc(-c2cc(F)cc(C(C)C)c2NC(=O)NS(=O)(=O)c2ccn(C(C)C)n2)c1` [Example 17, N-((4-Fluoro-2-iso-propyl-6-(5-methoxypyridin-3-yl)phenyl)carbamoyl)-1-iso-propyl-1H-pyrazole-3-sulfonamide, partial ammonium salt], the IC50 was no more than 5 µM. Then `O=C(Nc1c2c(nn1-c1ccncc1)CCC2)NS(=O)(=O)c1ccn(C2CC2)n1` [Example 273, 1-Cyclopropyl-N-((2-(pyridin-4-yl)-2,4,5,6-tetrahydrocyclopenta[c]pyrazol-3-yl)carbamoyl)-1H-pyrazole-3-sulfonamide], with no more than 5 µM; and `CC(C)c1cc(F)cc(-c2cncnc2)c1NC(=O)NS(=O)(=O)c1cc(CN(C)C)n(C)n1` [Example 42, 5-((Dimethylamino)methyl)-N-((4-fluoro-2-isopropyl-6-(pyrimidin-5-yl)phenyl)carbamoyl)-1-methyl-1H-pyrazole-3-sulfonamide], with no more than 5 µM. In the case of `CC(C)c1cc(F)cc(-c2ccccc2)c1NC(=O)NS(=O)(=O)c1ccn(C(C)C)n1` [Example 4, N-((5-Fluoro-3-iso-propyl-[1,1′-biphenyl]-2-yl)carbamoyl)-1-iso-propyl-1H-pyrazole-3-sulfonamide], the IC50 is no more than 5 µM. In the case of `CC(C)c1cc(F)cc(-c2cncn2C)c1NC(=O)NS(=O)(=O)c1ccn(C(C)C)n1` [Example 3, N-((4-Fluoro-2-iso-propyl-6-(1-methyl-1H-imidazol-5-yl)phenyl)carbamoyl)-1-iso-propyl-1H-pyrazole-3-sulfonamide] it was no more than 5 µM; in that of `CCN(CC)CCCS(=O)(=O)NC(=O)Nc1c(-c2ccnc(OC)c2)cc(F)cc1C(C)C` [Example 147, 3-(Diethylamino)-N-((4-fluoro-2-isopropyl-6-(2-methoxypyridin-4-yl)phenyl)carbamoyl)propane-1-sulfonamide], no more than 0.5 µM; in that of `CC(C)c1cc(F)cc(-c2ccnc(C#N)c2)c1NC(=O)NS(=O)(=O)C1CN(C2CCC2)C1` [Example 78, N-((2-(2-Cyanopyridin-4-yl)-4-fluoro-6-isopropylphenyl)carbamoyl)-1-cyclobutylazetidine-3-sulfonamide], no more than 10 µM.

On to `CCN(CC)CCCS(=O)(=O)NC(=O)Nc1c(-c2ccnc(OC)c2)ccc2c1CCC2` [Example 148, 3-(Diethylamino)-N-((5-(2-methoxypyridin-4-yl)-2,3-dihydro-1H-inden-4-yl)carbamoyl)propane-1-sulfonamide], for which the IC50 is no more than 0.5 µM. Then `Cc1cc(-c2cc(F)cc(C(C)C)c2NC(=O)NS(=O)(=O)c2ccn(C(C)C)n2)n(C)n1` [Example 11, N-((2-(1,3-Dimethyl-1H-pyrazol-5-yl)-4-fluoro-6-iso-propylphenyl)carbamoyl)-1-iso-propyl-1H-pyrazole-3-sulfonamide, partial ammonium salt], with no more than 0.5 µM; and `CCc1cc(-c2cc(F)cc(C(C)C)c2NC(=O)NS(=O)(=O)c2ccn(C(C)C)n2)ccn1` [Example 29, N-((2-(2-Ethylpyridin-4-yl)-4-fluoro-6-iso-propylphenyl)carbamoyl)-1-iso-propyl-1H-pyrazole-3-sulfonamide], with no more than 5 µM. Turning to `COc1cc(-c2cc(F)cc(C(C)C)c2NC(=O)NS(=O)(=O)c2cnc(N(C)C)cn2)ccn1` [Example 107, 5-(Dimethylamino)-N-((4-fluoro-2-isopropyl-6-(2-methoxypyridin-4-yl)phenyl)carbamoyl)pyrazine-2-sulfonamide], the IC50 was no more than 0.5 µM. In the case of `COc1cc(-n2nc3c(c2NC(=O)NS(=O)(=O)c2cc(C(C)(C)O)co2)CCC3)ccn1` [Example 322, 4-(2-Hydroxypropan-2-yl)-N-((2-(2-methoxypyridin-4-yl)-2,4,5,6-tetrahydrocyclopenta[c]pyrazol-3-yl)carbamoyl)furan-2-sulfonamide] it was no more than 5 µM; in that of `CC(C)n1ccc(S(=O)(=O)NC(=O)Nc2c(-c3ccnc(OCCN(C)C)c3)ccc3c2CCC3)n1` [Example 302, N-((5-(2-(2-(Dimethylamino)ethoxy)pyridin-4-yl)-2,3-dihydro-1H-inden-4-yl)carbamoyl)-1-isopropyl-1H-pyrazole-3-sulfonamide, sodium salt], no more than 5 µM; in that of `COCCCS(=O)(=O)NC(=O)Nc1c(-c2ccncc2)cc(F)c2c1CCC2` [Example 157, N-((7-Fluoro-5-(pyridin-4-yl)-2,3-dihydro-1H-inden-4-yl)carbamoyl)-3-methoxypropane-1-sulfonamide], no more than 5 µM. Then `CC(C)c1cc(F)cc(-c2ccnc(C#N)c2)c1NC(=O)NS(=O)(=O)CCc1ccccc1` [Example 135, N-((2-(2-Cyanopyridin-4-yl)-4-fluoro-6-isopropylphenyl)carbamoyl)-2-phenylethanesulfonamide], with no more than 1 µM; and `CC(C)c1cc(F)cc(-c2ccnc(C#N)c2)c1NC(=O)NS(=O)(=O)N1CC2CCN(C)C2C1` (centres unmarked) [Example 319, N-((2-(2-Cyanopyridin-4-yl)-4-fluoro-6-isopropylphenyl)carbamoyl)-1-methylhexahydropyrrolo[3,4-b]pyrrole-5(1H)-sulfonamide], with no more than 10 µM. As to `CC(C)c1cc(F)cc(-c2cnn(C)c2)c1NC(=O)NS(=O)(=O)c1ccn(C(C)C)n1` [Example 2, N-((4-Fluoro-2-iso-propyl-6-(1-methyl-1H-pyrazol-4-yl)phenyl)carbamoyl)-1-iso-propyl-1H-pyrazole-3-sulfonamide], the IC50 was no more than 5 µM.
